Values of other authors, collected in US20010053381A1, “System and method for treating kidney diseases in diabetic and non-diabetic patients” (priority 2000, published 2001).

Experiments:
[1] = test system: patients with type 1 DM and diabetic nephropathy

For insulin [CIIIT], the “progression of overt diabetic nephropathy” value ([1]; 37 months, type 1 DM patients) is given as “arrest or appreciably reduce the progression”, the “Creatinine clearance at baseline” value ([1]; baseline, 31 patients with type 1 DM and diabetic nephropathy) is given as 46.1 ± 3.0 mL/min and the “Creatinine clearance at the end of the observation period” value ([1]; end of observation period (37 months), 31 patients with type 1 DM and diabetic nephropathy) is given as 46.0 ± 3.9 mL/min. For the same substance, the “hemoglobin Alc levels, after study period” value ([1]; value after decline during the study period, P=0.0062) was 7.6±0.3%, the “hemoglobin Alc levels, start of study period” value ([1]; value before decline, patients with type 1 DM and diabetic nephropathy) was 8.6±0.6% and the blood pressure control (patients with type 1 DM) was “improve blood pressure control substantially”. For the same substance, the “reduction of antihypertensive medication requirements” value (patients with type 1 DM) was 46%.
